The compounds below were run against T1, Signal transducer and activator of transcription 5A (Homo sapiens, UniProt P42229) (assay: Binding affinity to N-terminal 6his-tagged human STAT5A (136 to 705 residues) expressed in Escherichia coli BL21-DE3 rosetta cells assessed as inhibition constant by FP assay).
T1 sequence (P42229 whole entry): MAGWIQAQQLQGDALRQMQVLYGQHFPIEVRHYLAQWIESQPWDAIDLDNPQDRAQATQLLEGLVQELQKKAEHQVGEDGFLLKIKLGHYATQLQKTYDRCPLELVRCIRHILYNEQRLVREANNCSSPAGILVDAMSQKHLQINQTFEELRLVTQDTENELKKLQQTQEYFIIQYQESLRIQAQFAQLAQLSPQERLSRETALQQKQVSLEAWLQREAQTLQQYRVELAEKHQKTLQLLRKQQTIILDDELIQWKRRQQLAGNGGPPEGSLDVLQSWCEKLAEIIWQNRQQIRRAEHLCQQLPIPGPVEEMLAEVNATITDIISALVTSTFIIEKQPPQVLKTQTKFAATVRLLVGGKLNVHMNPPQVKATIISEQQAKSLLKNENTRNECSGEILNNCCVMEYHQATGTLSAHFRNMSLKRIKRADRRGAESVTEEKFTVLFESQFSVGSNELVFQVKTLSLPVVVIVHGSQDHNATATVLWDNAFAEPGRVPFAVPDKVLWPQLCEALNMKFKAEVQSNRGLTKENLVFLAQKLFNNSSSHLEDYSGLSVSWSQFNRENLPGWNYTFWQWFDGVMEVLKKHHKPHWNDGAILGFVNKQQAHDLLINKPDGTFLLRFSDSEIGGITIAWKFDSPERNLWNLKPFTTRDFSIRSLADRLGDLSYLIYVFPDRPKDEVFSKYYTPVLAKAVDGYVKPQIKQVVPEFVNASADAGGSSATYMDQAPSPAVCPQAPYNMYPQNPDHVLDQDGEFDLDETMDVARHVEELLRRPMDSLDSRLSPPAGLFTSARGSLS

Row | Structure (SMILES) | Ki
1 | CC(C)(C)[C@H](NC(=O)c1cc2cc(C(F)(F)P(=O)(O)O)ccc2s1)C(=O)N1CCC[C@H]1C(=O)N(CCC(=O)NCCCC#Cc1cccc2c1CN(C1CCC(=O)NC1=O)C2=O)c1ccc2sccc2c1 (stereo partly drawn) | 1200 nM

These compounds were tested against T2, Signal transducer and activator of transcription 5B (Homo sapiens, UniProt P51692) (assay: Binding affinity to STAT5B (unknown origin) assessed as inhibition constant by FP assay).
T2 sequence (P51692 whole entry): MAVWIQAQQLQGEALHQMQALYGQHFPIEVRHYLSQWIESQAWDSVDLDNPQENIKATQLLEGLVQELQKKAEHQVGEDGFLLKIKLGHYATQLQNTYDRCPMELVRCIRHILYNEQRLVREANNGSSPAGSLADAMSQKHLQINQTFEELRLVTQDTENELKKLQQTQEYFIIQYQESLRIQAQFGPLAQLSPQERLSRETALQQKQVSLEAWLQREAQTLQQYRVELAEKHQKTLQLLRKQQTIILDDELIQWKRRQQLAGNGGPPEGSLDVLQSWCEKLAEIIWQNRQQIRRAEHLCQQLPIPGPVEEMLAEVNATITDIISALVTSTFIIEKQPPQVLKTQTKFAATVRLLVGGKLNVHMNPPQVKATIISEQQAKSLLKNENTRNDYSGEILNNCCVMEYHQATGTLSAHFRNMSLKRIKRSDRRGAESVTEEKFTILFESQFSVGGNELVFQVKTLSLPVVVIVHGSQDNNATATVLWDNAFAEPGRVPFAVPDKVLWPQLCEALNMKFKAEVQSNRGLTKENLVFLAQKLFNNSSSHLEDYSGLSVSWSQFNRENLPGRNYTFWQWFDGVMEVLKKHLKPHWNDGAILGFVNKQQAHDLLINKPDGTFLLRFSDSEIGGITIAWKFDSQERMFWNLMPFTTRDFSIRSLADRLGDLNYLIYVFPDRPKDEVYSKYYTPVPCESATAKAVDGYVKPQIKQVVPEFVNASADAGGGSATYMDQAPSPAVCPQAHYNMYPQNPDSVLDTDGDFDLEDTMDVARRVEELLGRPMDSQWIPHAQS

Row | Structure (SMILES) | Ki
2 | CC(C)(C)[C@H](NC(=O)c1cc2cc(C(F)(F)P(=O)(O)O)ccc2s1)C(=O)N1CCC[C@H]1C(=O)N1CCCOCC1 | > 10000 nM
3 | CC(C)(C)[C@H](NC(=O)c1cc2cc(C(F)(F)P(=O)(O)O)ccc2s1)C(=O)N1CCC[C@H]1C(=O)N1CCC2(CCC2)C1 | > 10000 nM
4 | CN(C)C(=O)CCN(C(=O)[C@@H]1CCCN1C(=O)[C@@H](NC(=O)c1cc2cc(C(F)(F)P(=O)(O)O)ccc2s1)C(C)(C)C)c1ccc2occc2c1 | 2000 nM
5 | CN(C)C(=O)CCN(C(=O)[C@@H]1CCCN1C(=O)[C@@H](NC(=O)c1cc2cc(C(F)(F)P(=O)(O)O)ccc2s1)C(C)(C)C)c1cccc(Br)c1 | 7000 nM
6 | CN(C)C(=O)CCN(C(=O)[C@@H]1CCCN1C(=O)[C@@H](NC(=O)c1cc2cc(C(F)(F)P(=O)(O)O)ccc2s1)C(C)(C)C)c1ccccc1 | 6800 nM
7 | CN(C)C(=O)CCN(C(=O)[C@@H]1CCCN1C(=O)[C@@H](NC(=O)c1cc2cc(C(F)(F)P(=O)(O)O)ccc2s1)C(C)(C)C)c1ccc2scnc2c1 | 1300 nM
8 | CC(C)(C)[C@H](NC(=O)c1cc2cc(C(F)(F)P(=O)(O)O)ccc2s1)C(=O)N1CCC[C@H]1C(=O)N1CCCc2ccccc21 | 6200 nM
9 | CC(C)(C)[C@H](NC(=O)c1cc2cc(C(F)(F)P(=O)(O)O)ccc2s1)C(=O)N1CCC[C@H]1C(=O)N(CCC(=O)NCCCC#Cc1cccc2c1CN(C1CCC(=O)NC1=O)C2=O)c1ccc2sccc2c1 (stereo partly drawn) | 800 nM
10 | CN(C)C(=O)CCN(C(=O)[C@@H]1CCCN1C(=O)[C@@H](NC(=O)c1cc2cc(C(F)(F)P(=O)(O)O)ccc2s1)C(C)(C)C)c1ccc(Br)cc1 | 2100 nM
11 | CC(C)(C)[C@H](NC(=O)c1cc2cc(C(F)(F)P(=O)(O)O)ccc2s1)C(=O)N1CCC[C@H]1C(=O)Nc1ccccc1 | > 10000 nM
12 | C/C(=C\C(=O)N[C@H](C(=O)N1CCC[C@H]1C(=O)N1CCCc2ccccc21)C(C)(C)C)c1ccc(C(F)(F)P(=O)(O)O)cc1 | > 10000 nM
13 | CN(C)C(=O)CCN(C(=O)[C@@H]1CCCN1C(=O)[C@@H](NC(=O)c1cc2cc(C(F)(F)P(=O)(O)O)ccc2s1)C(C)(C)C)c1ccc(Cl)cc1 | 4200 nM
14 | CN(C(=O)[C@@H]1CCCN1C(=O)[C@@H](NC(=O)c1cc2cc(C(F)(F)P(=O)(O)O)ccc2s1)C(C)(C)C)c1ccccc1 | 6200 nM

Each compound was assayed against T1, Signal transducer and activator of transcription 5A (assay: Induction of STAT5 degradation in human SKNO-1 cells measured for 18 hrs by Western blot analysis).
Format: cell-based

Row | Structure (SMILES) | DC50
15 | CC(C)(C)[C@H](NC(=O)c1cc2cc(C(F)(F)P(=O)(O)O)ccc2s1)C(=O)N1CCC[C@H]1C(=O)N(CCC(=O)NCCCC#Cc1cccc2c1CN(C1CCC(=O)NC1=O)C2=O)c1ccc(F)cc1 (stereo partly drawn) | > 5000 nM
16 | CC(C)(C)[C@H](NC(=O)c1cc2cc(C(F)(F)P(=O)(O)O)ccc2s1)C(=O)N1CCC[C@H]1C(=O)N(CCC(=O)NCCCC#Cc1cccc2c1CN(C1CCC(=O)NC1=O)C2=O)c1ccc(-c2nccs2)cc1 (stereo partly drawn) | 130 nM
17 | Cc1ccc(N(CCC(=O)NCCCC#Cc2cccc3c2CN(C2CCC(=O)NC2=O)C3=O)C(=O)[C@@H]2CCCN2C(=O)[C@@H](NC(=O)c2cc3cc(C(F)(F)P(=O)(O)O)ccc3s2)C(C)(C)C)cc1 (stereo partly drawn) | 310 nM
18 | CC(C)(C)[C@H](NC(=O)c1cc2cc(C(F)(F)P(=O)(O)O)ccc2s1)C(=O)N1CCC[C@H]1C(=O)N(CCC(=O)NCCCC#Cc1cccc2c1CN(C1CCC(=O)NC1=O)C2=O)c1ccc2ccccc2c1 (stereo partly drawn) | 210 nM
19 | CC(C)(C)[C@H](NC(=O)c1cc2cc(C(F)(F)P(=O)(O)O)ccc2s1)C(=O)N1CCC[C@H]1C(=O)N(CCC(=O)NCCCC#Cc1cccc2c1CN(C1CCC(=O)NC1=O)C2=O)c1ccc2occc2c1 (stereo partly drawn) | 330 nM
20 | CN(CCCC#Cc1cccc2c1CN(C1CCC(=O)NC1=O)C2=O)C(=O)CCN(C(=O)[C@@H]1CCCN1C(=O)[C@@H](NC(=O)c1cc2cc(C(F)(F)P(=O)(O)O)ccc2s1)C(C)(C)C)c1ccc2ccccc2c1 (stereo partly drawn) | 130 nM
21 | CC(C)(C)[C@H](NC(=O)c1cc2cc(C(F)(F)P(=O)(O)O)ccc2s1)C(=O)N1CCC[C@H]1C(=O)N(CCC(=O)NCCCC#Cc1cccc2c1CN(C1CCC(=O)NC1=O)C2=O)c1ccccc1 (stereo partly drawn) | > 5000 nM
22 | CC(C)(C)[C@H](NC(=O)c1cc2cc(C(F)(F)P(=O)(O)O)ccc2s1)C(=O)N1CCC[C@H]1C(=O)N(CCC(=O)NCCCC#Cc1cccc2c1CN(C1CCC(=O)NC1=O)C2=O)c1cccc(C(F)(F)F)c1 (stereo partly drawn) | > 5000 nM
23 | CC(C)(C)[C@H](NC(=O)c1cc2cc(C(F)(F)P(=O)(O)O)ccc2s1)C(=O)N1CCC[C@H]1C(=O)N(CCC(=O)NCCCC#Cc1cccc2c1CN(C1CCC(=O)NC1=O)C2=O)c1ccc(C(F)(F)F)cc1 (stereo partly drawn) | 2000 nM
24 | CC(C)(C)[C@H](NC(=O)c1cc2cc(C(F)(F)P(=O)(O)O)ccc2s1)C(=O)N1CCC[C@H]1C(=O)N(CCC(=O)NCCCC#Cc1cccc2c1CN(C1CCC(=O)NC1=O)C2=O)c1ccc(S(C)(=O)=O)cc1 (stereo partly drawn) | > 5000 nM
25 | CC(C)(C)[C@H](NC(=O)c1cc2cc(C(F)(F)P(=O)(O)O)ccc2s1)C(=O)N1CCC[C@H]1C(=O)N(CCCCCCCC#Cc1cccc2c1CN(C1CCC(=O)NC1=O)C2=O)c1ccc(-c2nccs2)cc1 (stereo partly drawn) | > 5000 nM
26 | CC(C)(C)[C@H](NC(=O)c1cc2cc(C(F)(F)P(=O)(O)O)ccc2s1)C(=O)N1CCC[C@H]1C(=O)N(CCC(=O)NCCCC#Cc1cccc2c1CN(C1CCC(=O)NC1=O)C2=O)c1ccc2sccc2c1 (stereo partly drawn) | 180 nM
27 | CN(CCCC#Cc1cccc2c1CN(C1CCC(=O)NC1=O)C2=O)C(=O)CCN(C(=O)[C@@H]1CCCN1C(=O)[C@@H](NC(=O)c1cc2cc(C(F)(F)P(=O)(O)O)ccc2s1)C(C)(C)C)c1ccc2scnc2c1 (stereo partly drawn) | 330 nM
28 | CC(C)(C)[C@H](NC(=O)c1cc2cc(C(F)(F)P(=O)(O)O)ccc2s1)C(=O)N1CCC[C@H]1C(=O)N(CCC(=O)NCCCC#Cc1cccc2c1CN(C1CCC(=O)NC1=O)C2=O)c1ccc(Cl)c(F)c1 (stereo partly drawn) | > 5000 nM
29 | CC(C)(C)c1ccc(N(CCC(=O)NCCCC#Cc2cccc3c2CN(C2CCC(=O)NC2=O)C3=O)C(=O)[C@@H]2CCCN2C(=O)[C@@H](NC(=O)c2cc3cc(C(F)(F)P(=O)(O)O)ccc3s2)C(C)(C)C)cc1 (stereo partly drawn) | > 5000 nM
30 | CC(C)(C)[C@H](NC(=O)c1cc2cc(C(F)(F)P(=O)(O)O)ccc2s1)C(=O)N1CCC[C@H]1C(=O)N(CCC(=O)NCCCC#Cc1cccc2c1CN(C1CCC(=O)NC1=O)C2=O)c1cccc2sccc12 (stereo partly drawn) | > 5000 nM
31 | CN(CCCC#Cc1cccc2c1CN(C1CCC(=O)NC1=O)C2=O)C(=O)CCN(C(=O)[C@@H]1CCCN1C(=O)[C@@H](NC(=O)c1cc2cc(C(F)(F)P(=O)(O)O)ccc2s1)C(C)(C)C)c1ccc2occc2c1 (stereo partly drawn) | 200 nM
32 | CC(C)(C)[C@H](NC(=O)c1cc2cc(C(F)(F)P(=O)(O)O)ccc2s1)C(=O)N1CCC[C@H]1C(=O)N(CCC(=O)NCCCC#Cc1cccc2c1CN(C1CCC(=O)NC1=O)C2=O)c1ccc(I)cc1 (stereo partly drawn) | 530 nM
33 | CC(C)(C)[C@H](NC(=O)c1cc2cc(C(F)(F)P(=O)(O)O)ccc2s1)C(=O)N1CCC[C@H]1C(=O)N(CCC(=O)NCCCC#Cc1cccc2c1CN(C1CCC(=O)NC1=O)C2=O)c1ccc(C#N)cc1 (stereo partly drawn) | > 5000 nM
34 | CC(C)(C)[C@H](NC(=O)c1cc2cc(C(F)(F)P(=O)(O)O)ccc2s1)C(=O)N1CCC[C@H]1C(=O)N(CCC(=O)NCCCC#Cc1cccc2c1CN(C1CCC(=O)NC1=O)C2=O)c1ccc2ncsc2c1 (stereo partly drawn) | > 5000 nM
35 | CC(C)(C)[C@H](NC(=O)c1cc2cc(C(F)(F)P(=O)(O)O)ccc2s1)C(=O)N1CCC[C@H]1C(=O)N(CCC(=O)NCCCC#Cc1cccc2c1CN(C1CCC(=O)NC1=O)C2=O)c1ccc(Cl)cc1 (stereo partly drawn) | 2100 nM
36 | CN(CCCC#Cc1cccc2c1CN(C1CCC(=O)NC1=O)C2=O)C(=O)CCN(C(=O)[C@@H]1CCCN1C(=O)[C@@H](NC(=O)c1cc2cc(C(F)(F)P(=O)(O)O)ccc2s1)C(C)(C)C)c1ccc2sccc2c1 (stereo partly drawn) | 130 nM
37 | CC(C)(C)[C@H](NC(=O)c1cc2cc(C(F)(F)P(=O)(O)O)ccc2s1)C(=O)N1CCC[C@H]1C(=O)N(CCC(=O)NCCCC#Cc1cccc2c1CN(C1CCC(=O)NC1=O)C2=O)c1ccc(-c2cccs2)cc1 (stereo partly drawn) | 210 nM
38 | CC(C)(C)[C@H](NC(=O)c1cc2cc(C(F)(F)P(=O)(O)O)ccc2s1)C(=O)N1CCC[C@H]1C(=O)N(CCC(=O)NCCCC#Cc1cccc2c1CN(C1CCC(=O)NC1=O)C2=O)c1cccc(C#N)c1 (stereo partly drawn) | > 5000 nM
